Active and inactive are the calls of the source. How the calls were made is not given here.
Tested on: CCRIS mutagenicity, Ames/micronucleus/aberration tests
Assay: CCRIS mutagenicity studies
[1] = Test System: AMES SALMONELLA TYPHIMURIUM, Strain/Indicator: TA98, Metabolic Activation: NONE, Method: PREINCUBATION
[2] = Test System: AMES SALMONELLA TYPHIMURIUM, Strain/Indicator: TA98, Metabolic Activation: RAT LIVER S-9, PHENOBARBITAL AND BETA-NAPHTHOFLAVONE, Method: PREINCUBATION
[3] = Test System: AMES SALMONELLA TYPHIMURIUM, Strain/Indicator: TA100, Metabolic Activation: NONE, Method: PREINCUBATION
[4] = Test System: AMES SALMONELLA TYPHIMURIUM, Strain/Indicator: TA100, Metabolic Activation: RAT LIVER S-9, PHENOBARBITAL AND BETA-NAPHTHOFLAVONE, Method: PREINCUBATION
[5] = Test System: AMES SALMONELLA TYPHIMURIUM, Strain/Indicator: TA1535, Metabolic Activation: NONE, Method: PREINCUBATION
[6] = Test System: AMES SALMONELLA TYPHIMURIUM, Strain/Indicator: TA1535, Metabolic Activation: RAT LIVER S-9, PHENOBARBITAL AND BETA-NAPHTHOFLAVONE, Method: PREINCUBATION
[7] = Test System: AMES SALMONELLA TYPHIMURIUM, Strain/Indicator: TA1537, Metabolic Activation: NONE, Method: PREINCUBATION
[8] = Test System: AMES SALMONELLA TYPHIMURIUM, Strain/Indicator: TA1537, Metabolic Activation: RAT LIVER S-9, PHENOBARBITAL AND BETA-NAPHTHOFLAVONE, Method: PREINCUBATION

Measured: mutagenic call

NC(N)=S
inactive: Test System: AMES SALMONELLA TYPHIMURIUM, Strain/Indicator: TA97, Metabolic Activation: HAMSTER, LIVER, S-9, AROCLOR 1254 (10 OR 30%), Method: PREINCUBATION inactive; negative | Test System: AMES SALMONELLA TYPHIMURIUM, Strain/Indicator: TA97, Metabolic Activation: NONE, Method: PREINCUBATION inactive; negative | Test System: AMES SALMONELLA TYPHIMURIUM, Strain/Indicator: TA97, Metabolic Activation: NONE, Method: STANDARD PLATE inactive; negative | Test System: AMES SALMONELLA TYPHIMURIUM, Strain/Indicator: TA97, Metabolic Activation: RAT, LIVER, S-9, AROCLOR 1254 (10 OR 30%), Method: PREINCUBATION inactive; negative | Test System: AMES SALMONELLA TYPHIMURIUM, Strain/Indicator: TA97, Metabolic Activation: RAT, LIVER, S-9, AROCLOR 1254, Method: STANDARD PLATE inactive; negative | Test System: AMES SALMONELLA TYPHIMURIUM, Strain/Indicator: TA98, Metabolic Activation: HAMSTER, LIVER, S-9, AROCLOR 1254 (10 OR 30%), Method: PREINCUBATION inactive; negative | [1] inactive; negative | Test System: AMES SALMONELLA TYPHIMURIUM, Strain/Indicator: TA98, Metabolic Activation: NONE, Method: STANDARD PLATE inactive; negative | [2] inactive; negative | Test System: AMES SALMONELLA TYPHIMURIUM, Strain/Indicator: TA98, Metabolic Activation: RAT, LIVER, S-9, AROCLOR 1254 (10 OR 30%), Method: PREINCUBATION inactive; negative | Test System: AMES SALMONELLA TYPHIMURIUM, Strain/Indicator: TA98, Metabolic Activation: RAT, LIVER, S-9, AROCLOR 1254, Method: STANDARD PLATE inactive; negative | Test System: AMES SALMONELLA TYPHIMURIUM, Strain/Indicator: TA100, Metabolic Activation: HAMSTER, LIVER, S-9, AROCLOR 1254 (10 OR 30%), Method: PREINCUBATION inactive; negative | [3] inactive; negative | Test System: AMES SALMONELLA TYPHIMURIUM, Strain/Indicator: TA100, Metabolic Activation: NONE, Method: STANDARD PLATE inactive; negative | [4] inactive; negative | Test System: AMES SALMONELLA TYPHIMURIUM, Strain/Indicator: TA100, Metabolic Activation: RAT, LIVER, S-9, AROCLOR 1254 (10 OR 30%), Method: PREINCUBATION inactive; negative | Test System: AMES SALMONELLA TYPHIMURIUM, Strain/Indicator: TA100, Metabolic Activation: RAT, LIVER, S-9, AROCLOR 1254, Method: STANDARD PLATE inactive; negative | Test System: AMES SALMONELLA TYPHIMURIUM, Strain/Indicator: TA1535, Metabolic Activation: HAMSTER, LIVER, S-9, AROCLOR 1254 (10 OR 30%), Method: PREINCUBATION inactive; negative | [5] inactive; negative | [6] inactive; negative | Test System: AMES SALMONELLA TYPHIMURIUM, Strain/Indicator: TA1535, Metabolic Activation: RAT, LIVER, S-9, AROCLOR 1254 (10 OR 30%), Method: PREINCUBATION inactive; negative | [7] inactive; negative | [8] inactive; negative | Test System: E. COLI, Strain/Indicator: WP2 UVRA, Metabolic Activation: HAMSTER, LIVER, S-9, AROCLOR 1254, Method: STANDARD PLATE inactive; negative | Test System: E. COLI, Strain/Indicator: WP2 UVRA, Metabolic Activation: HAMSTER, LIVER, S-9, Method: STANDARD PLATE inactive; negative | Test System: E. COLI, Strain/Indicator: WP2 UVRA, Metabolic Activation: MOUSE, LIVER, S-9, AROCLOR 1254, Method: STANDARD PLATE inactive; negative | Test System: E. COLI, Strain/Indicator: WP2 UVRA, Metabolic Activation: MOUSE, LIVER, S-9, Method: STANDARD PLATE inactive; negative | Test System: E. COLI, Strain/Indicator: WP2 UVRA, Metabolic Activation: NONE, Method: STANDARD PLATE inactive; negative | Test System: E. COLI, Strain/Indicator: WP2 UVRA, Metabolic Activation: RAT, LIVER, S-9, AROCLOR 1254, Method: STANDARD PLATE inactive; negative | Test System: E. COLI, Strain/Indicator: WP2 UVRA, Metabolic Activation: RAT, LIVER, S-9, Method: STANDARD PLATE inactive; negative | Test System: E.COLI, Strain/Indicator: WP2UVRA/PKM101, Metabolic Activation: NONE, Method: PREINCUBATION inactive; negative | Test System: E.COLI, Strain/Indicator: WP2UVRA/PKM101, Metabolic Activation: RAT LIVER S-9, PHENOBARBITAL AND BETA-NAPHTHOFLAVONE, Method: PREINCUBATION inactive; negative | Test System: MOUSE LYMPHOMA, Strain/Indicator: L5178Y (TK+/TK-), Metabolic Activation: NONE, Method: SUSPENSION/PLATE inactive; negative

CCCCOC(=O)c1ccc(N)cc1
inactive: Test System: AMES SALMONELLA TYPHIMURIUM, Strain/Indicator: TA98, Metabolic Activation: HAMSTER, LIVER, S-9, AROCLOR 1254, Method: PREINCUBATION inactive; negative | [1] inactive; negative | Test System: AMES SALMONELLA TYPHIMURIUM, Strain/Indicator: TA98, Metabolic Activation: RAT, LIVER, S-9, AROCLOR 1254, Method: PREINCUBATION inactive; negative | Test System: AMES SALMONELLA TYPHIMURIUM, Strain/Indicator: TA100, Metabolic Activation: HAMSTER, LIVER, S-9, AROCLOR 1254, Method: PREINCUBATION inactive; negative | [3] inactive; negative | Test System: AMES SALMONELLA TYPHIMURIUM, Strain/Indicator: TA100, Metabolic Activation: RAT, LIVER, S-9, AROCLOR 1254, Method: PREINCUBATION inactive; negative | Test System: AMES SALMONELLA TYPHIMURIUM, Strain/Indicator: TA1535, Metabolic Activation: HAMSTER, LIVER, S-9, AROCLOR 1254, Method: PREINCUBATION inactive; negative | [5] inactive; negative | Test System: AMES SALMONELLA TYPHIMURIUM, Strain/Indicator: TA1535, Metabolic Activation: RAT, LIVER, S-9, AROCLOR 1254, Method: PREINCUBATION inactive; negative | Test System: AMES SALMONELLA TYPHIMURIUM, Strain/Indicator: TA1537, Metabolic Activation: HAMSTER, LIVER, S-9, AROCLOR 1254, Method: PREINCUBATION inactive; negative | [7] inactive; negative | Test System: AMES SALMONELLA TYPHIMURIUM, Strain/Indicator: TA1537, Metabolic Activation: RAT, LIVER, S-9, AROCLOR 1254, Method: PREINCUBATION inactive; negative

[B-]
inactive: [1] inactive; negative | [2] inactive; negative | [3] inactive; negative | [4] inactive; negative | [5] inactive; negative | [6] inactive; negative | [7] inactive; negative | [8] inactive; negative | Test System: AMES SALMONELLA TYPHIMURIUM, Strain/Indicator: TA1538, Metabolic Activation: NONE, Method: PREINCUBATION inactive; negative | Test System: AMES SALMONELLA TYPHIMURIUM, Strain/Indicator: TA1538, Metabolic Activation: RAT LIVER S-9, PHENOBARBITAL AND BETA-NAPHTHOFLAVONE, Method: PREINCUBATION inactive; negative | Test System: E.COLI, Strain/Indicator: WP2UVRA, Metabolic Activation: NONE, Method: PREINCUBATION inactive; negative | Test System: E.COLI, Strain/Indicator: WP2UVRA, Metabolic Activation: RAT LIVER S-9, PHENOBARBITAL AND BETA-NAPHTHOFLAVONE, Method: PREINCUBATION inactive; negative

— PubChem BioAssay AID1259407 (Chemical Carcinogenesis Research Information System (CCRIS), 2018)
